# Source: patent US20100331333A1, “Imidazo [1,2-B] Pyridazine Compounds” (Wyeth LLC, priority 2007, published 2010)
# What was measured:
# human LXRβ = target: T1, human LXRβ (Homo sapiens, UniProt P55055); experiment: Ligand-binding test procedure for human LXRβ; details: 3H T0901317 tracer; biotinylated hLXRβ from E. coli extract
# T1 construct: biotin (biotinylated); made in house; host or cells: E. coli
# T1 sequence (P55055 1-460): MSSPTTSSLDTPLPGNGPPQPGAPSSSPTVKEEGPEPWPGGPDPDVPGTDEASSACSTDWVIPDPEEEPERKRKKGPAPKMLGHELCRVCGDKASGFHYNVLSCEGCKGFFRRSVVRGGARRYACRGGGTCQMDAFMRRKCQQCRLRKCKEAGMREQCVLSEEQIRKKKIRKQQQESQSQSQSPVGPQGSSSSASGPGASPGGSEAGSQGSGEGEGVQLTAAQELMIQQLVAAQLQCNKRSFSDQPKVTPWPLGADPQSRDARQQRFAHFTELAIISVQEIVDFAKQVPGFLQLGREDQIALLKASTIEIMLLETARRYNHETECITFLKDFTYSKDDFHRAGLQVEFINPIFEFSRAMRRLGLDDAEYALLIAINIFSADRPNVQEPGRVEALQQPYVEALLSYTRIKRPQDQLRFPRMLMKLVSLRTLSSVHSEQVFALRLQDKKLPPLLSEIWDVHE
# Description: IV. Ligand-Binding Test Procedure for Human LXRβ.
# (§1) Buffer: 100 mM KCl, 100 mM TRIS (pH 7.4 at +4° C.), 8.6% glycerol, 0.1 mM PMSF*, 2 mM MTG*, 0.2% CHAPS (* not used in wash buffer)
# Receptor source: E. coli extract from cells expressing biotinylated hLXRβ. Extract was made in a similar buffer as above, but with 50 mM TRIS.
# (§2) Washed streptavidin and coated flash plates with wash buffer. Diluted receptor extract to give Bmax ˜4000 cpm and add to the wells. Wrapped the plates in aluminum foil and stored them at +4° C. over night.
# Made a dilution series in DMSO of the test ligands. Made a 5 nM solution of the radioactive tracer in buffer. Mixed 250 μl diluted tracer with 5 μl of the test ligand from each concentration of the dilution series. Washed the receptor-coated flash plates. Added 200 μl per well of the ligand/radiolabel mixture to the receptor-coated flash plates. Wrapped the plates in aluminum foil and incubate at +4° C. over night.
# (§3) Aspirated wells, and wash the flashed plates. Sealed the plate. Measured the remaining radioactivity in the plate.
# human LXRα = target: T2, human LXRα (Homo sapiens, UniProt Q13133); experiment: Ligand-binding test procedure for human LXRα; details: 3H T0901317 tracer; biotinylated hLXRα from E. coli extract
# T2 construct: biotin (biotinylated); made in house; host or cells: E. coli
# T2 sequence (Q13133 1-447): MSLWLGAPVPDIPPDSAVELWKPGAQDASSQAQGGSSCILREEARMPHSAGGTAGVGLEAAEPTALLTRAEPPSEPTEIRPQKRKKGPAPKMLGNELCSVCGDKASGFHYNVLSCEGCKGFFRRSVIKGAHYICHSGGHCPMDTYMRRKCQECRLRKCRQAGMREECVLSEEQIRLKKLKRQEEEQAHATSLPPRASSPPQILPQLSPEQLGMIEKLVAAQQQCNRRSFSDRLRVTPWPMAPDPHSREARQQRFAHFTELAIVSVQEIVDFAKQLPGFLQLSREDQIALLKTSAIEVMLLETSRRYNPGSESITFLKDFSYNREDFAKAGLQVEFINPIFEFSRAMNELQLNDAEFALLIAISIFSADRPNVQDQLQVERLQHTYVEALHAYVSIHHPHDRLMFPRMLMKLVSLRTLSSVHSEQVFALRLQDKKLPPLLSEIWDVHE
# Description: II. Ligand-Binding Test Procedure for Human LXRα.
# as §1
# Receptor source: E. coli extract from cells expressing biotinylated hLXRα. Extract was made in a similar buffer as above, but with 50 mM TRIS.
# as §2
# Made a dilution series in DMSO of the test ligands. Made a 5 nM solution of the radioactive tracer in buffer. Mixed 250 μl diluted tracer with 5 μl of the test ligand from each concentration of the dilution series.
# Washed the receptor-coated flash plates.
# Added 200 μl per well of the ligand/radiolabel mixture to the receptor-coated flash plates. Wrapped the plates in aluminum foil and incubate at +4° C. over night.
# as §3
# ABCA1 gene = experiment: Quantitative analysis of ABCA1 gene regulation in THP-1 cells; assay type: cell-based; details: Gene regulation by LXR (human), differentiated THP-1 cells; for EC50: 18 hrs, ABCA1 mRNA by real-time PCR; for Agonism ABCA1: LXR agonist reference dosed at 1.0 uM as positive control
# Description: III. Quantitative Analysis of ABCA1 Gene Regulation in THP-1 Cells.
# The compounds of formula (I) effect on the regulation of the ABCA1 gene was evaluated using the following procedure.
# Cell culture: The THP-1 monocytic cell line (ATCC # TIB-202) was obtained from American Type Culture Collection (Manassas, Va.) and cultured in RPMI 1640 medium (Gibco, Carlsbad, Calif.) containing 10% FBS, 2 mM L-glutamine, and 55 uM beta-Mercaptoethanol (BME). Cells were plated in 96-well format at a density of 7.5×10^4 in complete medium containing 50-100 ng/ml phorbal 12,13-dibutyrate (Sigma, St. Louis, Mo.) for three days to induce differentiation into adherent macrophages. Differentiated THP-1 cells were treated with test compounds or ligands dissolved in DMSO (Sigma, D-8779) in culture medium lacking phorbal ester. […] Dose response effects were measured in duplicate, in the range of 0.001 to 30 micromolar concentrations and treated cells were incubated for an additional 18 hrs prior to RNA isolation. Unstimulated cells treated with vehicle were included as negative controls on each plate. An LXR agonist reference, N-(2,2,2-trifluoro-ethyl)-N-[4-(2,2,2-trifluoro-1-hydroxy-1-trifluoromethyl-ethyl)-phenyl]-benzenesulfonamide (Schultz, Joshua R., Genes & Development (2000), 14(22), 2831-2838), was dosed at 1.0 uM and served as a positive control. In antagonist mode, the compound under study is analyzed in the presence of 150 nM GW3965, trifluoromethyl-benzyl)-(2,2-diphenyl-ethyl)-amino]-propoxy]-phenyl)-acetic acid (Collins, J. L., J. Med. Chem. (2000), 45:1963-1966.). Results of antagonist analysis are expressed as % antagonism and IC50 (in μM). RNA isolation and quantitation: Total cellular RNA was isolated from treated cells cultured in 96-well plates using PrepStation 6100 (Applied Biosystems, Foster City, Calif.), according to the manufacturer's recommendations. RNA was resuspended in ribonuclease-free water and stored at −70° C. prior to analysis. RNA concentrations were quantitated with RiboGreen test procedure, #R-11490 (Molecular Probes, Eugene, Oreg.). Gene expression analysis: Gene-specific mRNA quantitation was performed by real-time PCR with the Perkin Elmer Corp. chemistry on an ABI Prism 7700 Sequence detection system (Applied Biosystems, Foster City, Calif.) according to the manufacturer's instructions. Samples (50-100 ng) of total RNA were assayed in duplicate or triplicate in 50 ul reactions using one-step RT-PCR and the standard curve method to estimate specific mRNA concentrations. Sequences of gene-specific primer and probe sets were designed with Primer Express Software (Applied Biosystems, Foster City, Calif.). The human ABCA1 primer and probe sequences are: forward, […], reverse, […], and probe, 6FAM-[…]-TAMRA. RT and PCR reactions were performed according to PE Applied Biosystem's protocol for Taqman Gold RT-PCR or Qiagen's protocl for Quantitect probe RT-PCR. Relative levels of ABCA1 mRNA are normalized using GAPDH mRNA or 18S rRNA probe/primer sets purchased commercially (Applied Biosystems, Foster City, Calif.).
# Mean, standard deviation and statistical significance of duplicate evaluations of RNA samples were assessed using ANOVA, one-way analysis of variance using SAS analysis.
IC50 (human LXRβ),IC50 (human LXRα),EC50 (ABCA1 gene),SMILES,Agonism ABCA1 (ABCA1 gene)
1.96 nM,44 nM,,"CS(=O)(=O)c1cccc(Oc2cccc(-c3c(Cc4ccccc4)nc4c(C(F)(F)F)ccnn34)c2)c1 [Example 7, 2-Benzyl-3-{3-[3-(methylsulfonyl)phenoxy]phenyl}-8-(trifluoromethyl)imidazo[1,2-b]pyridazine]",
133 nM,2040 nM,1850 nM,"CCc1nc2c(C(F)(F)F)ccnn2c1-c1cccc(Oc2cccc(S(C)(=O)=O)c2)c1 [Example 8, 2-ethyl-3-{3-[3-(methylsulfonyl)phenoxy]phenyl}-8-(trifluoromethyl)imidazo[1,2-b]pyridazine]",85%
148 nM,1570 nM,,"CCc1nc2c(C(F)(F)F)ccnn2c1-c1cccc(Oc2cccc(S(=O)(=O)CC)c2)c1 [Example 9, 2-Ethyl-3-{3-[3-(ethylsulfonyl)phenoxy]phenyl}-8-(trifluoromethyl)imidazo[1,2-b]pyridazine]",
99 nM,1460 nM,1840 nM,"CC(C)c1nc2c(C(F)(F)F)ccnn2c1-c1cccc(Oc2cccc(S(C)(=O)=O)c2)c1 [Example 10, 2-isopropyl-3-{3-[3-(methylsulfonyl)phenoxy]phenyl}-8-(trifluoromethyl)imidazo[1,2-b]pyridazine]",81%
117 nM,1090 nM,2050 nM,"CCS(=O)(=O)c1cccc(Oc2cccc(-c3c(C(C)C)nc4c(C(F)(F)F)ccnn34)c2)c1 [Example 11, 3-{3-[3-(ethylsulfonyl)phenoxy]phenyl}-2-isopropyl-8-(trifluoromethyl)imidazo[1,2-b]pyridazine]",92%
